In patent US9139532B2, “Pyrazolyl guanidine F1F0-atpase inhibitors and therapeutic uses thereof” (Lycera Corporation, priority 2010, dated 2015):
Read-outs that look alike come from different tables or passages of the source.

Legend:
F1F0-ATPase = target: T1, F1F0-ATPase (Bos taurus, UniProt P13621); test: Inhibition of F1F0-ATPase activity in synthesizing ATP; type: biochemical; conditions: inhibition of ATP synthesis by F1F0-ATPase; read-out: ATP Syn IC50
T1 construct: from tissue

Ramos cells = test: Cytotoxicity in Ramos cells; type: cell-based; conditions: cytotoxicity in Ramos cells, read-out: Ramos Cell EC50

IC50 (F1F0-ATPase) | SMILES | EC50 (Ramos cells) | EC50 (Ramos cells; Homo sapiens)
< 10 µM | N#Cc1cccc(C(=O)/N=C(\Nc2cc(-c3cc(F)cc(F)c3)n[nH]2)NC2CCC2)c1 [Compound A-314] | < 10 µM | –
< 10 µM | CC(C)(C)N/C(=N/C(=O)c1cccc(C#N)c1)Nc1cc(-c2cc(F)cc(F)c2)n[nH]1 [Compound A-315] | > 10 µM | –
< 10 µM | Cc1ccc(-c2cc(N/C(=N\C(=O)c3ccc(F)c(F)c3)NC3CCCC3)[nH]n2)cc1F [Compound A-316] | < 10 µM | –
< 10 µM | Cc1ccc(-c2cc(N/C(=N\C(=O)c3ccc(F)c(F)c3)NCc3ccc(F)cc3Cl)[nH]n2)cc1F [Compound A-317] | < 10 µM | –
> 10 µM | Cc1ccc(-c2cc(N/C(=N\C(=O)c3ccc(F)c(F)c3)Nc3ccc(F)cc3Cl)[nH]n2)cc1F [Compound A-318] | < 10 µM | –
< 10 µM | Cc1ccc(-c2cc(N/C(=N\C(=O)c3ccc(F)c(F)c3)NC(C)C)[nH]n2)cc1F [Compound A-319] | < 10 µM | –
< 10 µM | Cc1ccc(-c2cc(N/C(=N\C(=O)c3ccc(F)c(F)c3)NC3CCC3)[nH]n2)cc1F [Compound A-320] | < 10 µM | –
< 10 µM | CCC(C)CN/C(=N/C(=O)c1ccc(F)c(F)c1)Nc1cc(-c2ccc(C)c(F)c2)n[nH]1 (stereo not drawn) [Compound A-321] | < 10 µM | –
< 10 µM | Cc1ccc(-c2cc(N/C(=N\C(=O)c3ccc(F)c(F)c3)NCCCOC(C)C)[nH]n2)cc1F [Compound A-322] | < 10 µM | –
< 10 µM | Cc1ccc(-c2cc(N/C(=N\C(=O)c3ccc(F)c(F)c3)NCC(C)C)[nH]n2)cc1F [Compound A-323] | < 10 µM | –
< 10 µM | Cc1ccc(-c2cc(N/C(=N\C(=O)c3ccc(F)c(F)c3)NC(C)C(C)C)[nH]n2)cc1F (stereo not drawn) [Compound A-324] | < 10 µM | –
< 10 µM | CCC(C)N/C(=N/C(=O)c1ccc(F)c(F)c1)Nc1cc(-c2ccc(C)c(F)c2)n[nH]1 (stereo not drawn) [Compound A-325] | < 10 µM | –
< 10 µM | Cc1ccc(-c2cc(N/C(=N\C(=O)c3ccc(C(F)(F)F)cc3)NC3CCCC3)[nH]n2)cc1F [Compound A-326] | > 10 µM | –
> 10 µM | Cc1ccc(-c2cc(NC(=NC(=O)c3ccc(C(F)(F)F)cc3)NCc3ccc(F)cc3Cl)[nH]n2)cc1F [Compound A-327] | – | > 10 µM
< 10 µM | Cc1ccc(-c2cc(N/C(=N\C(=O)c3ccc(C(F)(F)F)cc3)NC(C)C)[nH]n2)cc1F [Compound A-328] | < 10 µM | –
< 10 µM | Cc1ccc(-c2cc(N/C(=N\C(=O)c3ccc(C(F)(F)F)cc3)NC3CCC3)[nH]n2)cc1F [Compound A-329] | < 10 µM | –
> 10 µM | CCC(C)CN/C(=N/C(=O)c1ccc(C(F)(F)F)cc1)Nc1cc(-c2ccc(C)c(F)c2)n[nH]1 (stereo not drawn) [Compound A-330] | > 10 µM | –
< 10 µM | Cc1ccc(-c2cc(N/C(=N\C(=O)c3ccc(C(F)(F)F)cc3)NCC(C)C)[nH]n2)cc1F [Compound A-332] | > 10 µM | –
< 10 µM | Cc1ccc(-c2cc(N/C(=N\C(=O)c3ccc(C(F)(F)F)cc3)NC(C)C(C)C)[nH]n2)cc1F (stereo not drawn) [Compound A-333] | > 10 µM | –
< 10 µM | CCC(C)N/C(=N/C(=O)c1ccc(C(F)(F)F)cc1)Nc1cc(-c2ccc(C)c(F)c2)n[nH]1 (stereo not drawn) [Compound A-334] | < 10 µM | –

IC50 (F1F0-ATPase) | SMILES | EC50 (Ramos cells) | EC50 (Ramos cells; Homo sapiens)
< 10 µM | CC(C)(C)c1n[nH]c(NC(=NC(=O)c2ccc(C(F)(F)F)cc2)NCc2ccc(F)cc2Cl)c1F [Compound A-335] | – | < 10 µM
< 10 µM | CC(C)(C)c1n[nH]c(N/C(=N\C(=O)c2ccc(C(F)(F)F)cc2)Nc2ccc(F)cc2Cl)c1F [Compound A-336] | < 10 µM | –
> 10 µM | CNC(=O)c1cc(NC(=NC(=O)c2ccc(C(F)(F)F)cc2)Nc2ccc(F)cc2Cl)[nH]n1 [Compound A-337] | – | > 10 µM
< 10 µM | COC(=O)c1cc(NC(=NC(=O)c2ccc(C(F)(F)F)cc2)NCc2ccc(F)cc2Cl)[nH]n1 [Compound A-338] | – | < 10 µM
< 10 µM | CC(C)(C)N/C(=N/C(=O)c1ccc(C(F)(F)F)cc1)Nc1[nH]nc(C(C)(C)C)c1F [Compound A-340] | < 10 µM | –
< 10 µM | Cc1cc(C(=O)/N=C(\Nc2cc(-c3ccc(F)cc3)n[nH]2)NC(C)(C)C)ccn1 [Compound A-341] | < 10 µM | –
< 10 µM | COC(=O)c1cccc(C(=O)/N=C(\Nc2cc(-c3ccc(F)cc3)n[nH]2)NC(C)(C)C)c1 [Compound A-342] | < 10 µM | –
< 10 µM | N#CC1(N/C(=N/C(=O)c2ccc(Cl)c(F)c2)Nc2cc(-c3cc(F)cc(F)c3)n[nH]2)CC1 [Compound A-343] | – | > 10 µM
< 10 µM | CC(C)OCCCNC(=NC(=O)c1ccc(Cl)c(F)c1)Nc1cc(-c2cc(F)cc(F)c2)n[nH]1 [Compound A-344] | – | < 10 µM
> 10 µM | CC(C)(C)c1cc(NC(=NC(=O)c2ccc(Cl)c(F)c2)Nc2cc(-c3cc(F)cc(F)c3)n[nH]2)no1 [Compound A-345] | – | > 10 µM
< 10 µM | CCC(C)CN/C(=N/C(=O)c1ccc(Cl)c(F)c1)Nc1cc(-c2cc(F)cc(F)c2)n[nH]1 (stereo not drawn) [Compound A-346] | < 10 µM | –
< 10 µM | O=C(/N=C(\Nc1cc(-c2cc(F)cc(F)c2)n[nH]1)NC1CCC1)c1ccc(Cl)c(F)c1 [Compound A-347] | < 10 µM | –
< 10 µM | CCCC(C)NC(=NC(=O)c1ccc(Cl)c(F)c1)Nc1cc(-c2cc(F)cc(F)c2)n[nH]1 (stereo not drawn) [Compound A-348] | – | < 10 µM
< 10 µM | CC(C)CCNC(=NC(=O)c1ccc(Cl)c(F)c1)Nc1cc(-c2cc(F)cc(F)c2)n[nH]1 [Compound A-349] | – | < 10 µM
< 10 µM | CCC(CC)NC(=NC(=O)c1ccc(Cl)c(F)c1)Nc1cc(-c2cc(F)cc(F)c2)n[nH]1 [Compound A-350] | – | < 10 µM
< 10 µM | CC(C)C(C)NC(=NC(=O)c1ccc(Cl)c(F)c1)Nc1cc(-c2cc(F)cc(F)c2)n[nH]1 (stereo not drawn) [Compound A-351] | – | < 10 µM
< 10 µM | CC(C)CN/C(=N/C(=O)c1ccc(Cl)c(F)c1)Nc1cc(-c2cc(F)cc(F)c2)n[nH]1 [Compound A-352] | < 10 µM | –
< 10 µM | CC(C)N/C(=N/C(=O)c1ccc(Cl)c(F)c1)Nc1cc(-c2cc(F)cc(F)c2)n[nH]1 [Compound A-359] | < 10 µM | –
< 10 µM | CCCCN/C(=N/C(=O)c1ccc(Cl)c(F)c1)Nc1cc(-c2cc(F)cc(F)c2)n[nH]1 [Compound A-360] | < 10 µM | –
< 10 µM | O=C(/N=C(/NCC1CC1)Nc1cc(-c2cc(F)cc(F)c2)n[nH]1)c1ccc(Cl)c(F)c1 [Compound A-361] | < 10 µM | –

IC50 (F1F0-ATPase) | SMILES | EC50 (Ramos cells) | EC50 (Ramos cells; Homo sapiens)
< 10 µM | CCC(C)NC(=NC(=O)c1ccc(Cl)c(F)c1)Nc1cc(-c2cc(F)cc(F)c2)n[nH]1 (stereo not drawn) [Compound A-362] | – | < 10 µM
< 10 µM | COCC(C)NC(=NC(=O)c1ccc(F)c(F)c1)Nc1cc(-c2cc(F)cc(F)c2)n[nH]1 (stereo not drawn) [Compound A-363] | – | < 10 µM
< 10 µM | CC(C)CNC(=NC(=O)c1ccc(F)c(F)c1)Nc1cc(-c2cc(F)cc(F)c2)n[nH]1 [Compound A-364] | – | < 10 µM
< 10 µM | O=C(N=C(Nc1cc(-c2cc(F)cc(F)c2)n[nH]1)NC1CCCC1)c1ccc(F)c(F)c1 [Compound A-365] | – | < 10 µM
< 10 µM | CC(C)N/C(=N/C(=O)c1ccc(F)c(F)c1)Nc1cc(-c2cc(F)cc(F)c2)n[nH]1 [Compound A-366] | < 10 µM | –
< 10 µM | COCC(C)NC(=NC(=O)c1cccc(F)c1)Nc1cc(-c2cc(F)cc(F)c2)n[nH]1 (stereo not drawn) [Compound A-367] | < 10 µM | –
< 10 µM | CC(C)CN/C(=N/C(=O)c1cccc(F)c1)Nc1cc(-c2cc(F)cc(F)c2)n[nH]1 [Compound A-368] | < 10 µM | –
< 10 µM | O=C(N=C(Nc1cc(-c2cc(F)cc(F)c2)n[nH]1)NC1CCCC1)c1cccc(F)c1 [Compound A-369] | – | < 10 µM
< 10 µM | CC(C)NC(=NC(=O)c1cccc(F)c1)Nc1cc(-c2cc(F)cc(F)c2)n[nH]1 [Compound A-370] | – | < 10 µM
> 10 µM | COCC(C)NC(=NC(=O)c1ccc(OC)cc1F)Nc1cc(-c2ccc(F)cc2)n[nH]1 (stereo not drawn) [Compound A-371] | > 10 µM | –
< 10 µM | COc1ccc(C(=O)/N=C(/NCC(C)C)Nc2cc(-c3ccc(F)cc3)n[nH]2)c(F)c1 [Compound A-372] | > 10 µM | –
< 10 µM | COc1ccc(C(=O)/N=C(\Nc2cc(-c3ccc(F)cc3)n[nH]2)NC(C)(C)C)c(F)c1 [Compound A-373] | < 10 µM | –
< 10 µM | COc1ccc(C(=O)/N=C(\Nc2cc(-c3ccc(F)cc3)n[nH]2)NC(C)C)c(F)c1 [Compound A-374] | < 10 µM | –
< 10 µM | CC(C)(C)N/C(=N/C(=O)c1ccc(S(N)(=O)=O)cc1)Nc1cc(-c2ccc(F)cc2)n[nH]1 [Compound A-375] | < 10 µM | –
< 10 µM | COCC(C)NC(=NC(=O)c1ccc(F)c(F)c1)Nc1cc(-c2ccc(Cl)cc2)n[nH]1 (stereo not drawn) [Compound A-376] | – | < 10 µM
< 10 µM | CC(C)CN/C(=N/C(=O)c1ccc(F)c(F)c1)Nc1cc(-c2ccc(Cl)cc2)n[nH]1 [Compound A-377] | < 10 µM | –
< 10 µM | O=C(N=C(Nc1cc(-c2ccc(Cl)cc2)n[nH]1)NC1CCCC1)c1ccc(F)c(F)c1 [Compound A-378] | – | < 10 µM
< 10 µM | CC(C)NC(=NC(=O)c1ccc(F)c(F)c1)Nc1cc(-c2ccc(Cl)cc2)n[nH]1 [Compound A-379] | – | < 10 µM
< 10 µM | COC[C@H](C)N/C(=N/C(=O)c1ccc(Cl)c(F)c1)Nc1cc(-c2ccc(Cl)cc2)n[nH]1 [Compound A-380] | < 10 µM | –
< 10 µM | CC(C)CNC(=NC(=O)c1ccc(Cl)c(F)c1)Nc1cc(-c2ccc(Cl)cc2)n[nH]1 [Compound A-381] | – | < 10 µM
